# Reference: patent US8017656B2, “Organic sulfur compounds and use thereof” (Sumitomo Chemical Company, Limited, priority 2005, dated 2011)
# Where two headings read alike, the source gives them in different places.
# Key:
# Assay type in all cases: in vivo
# Blattella germanica = experiment: Test Example 3: filter paper/sucrose bait test against German cockroach imagoes; conditions: for pest or weed control at 500 ppm: Blattella germanica, 144 h, read-out: rate of dead pests
# Experimental: (§1) On the bottom of a polyethylene cup having a diameter of 5.5 cm, a filter paper having the same diameter was laid, and 0.7 ml of the above test solution was added dropwise on the filter paper, followed by putting 30 mg of sucrose on it uniformly as a bait. Two male Blattella germanica imagoes were set free in the polyethylene cup and covered it with a lid. After 6 days, the number of surviving and dead Blattella germanica was examined and the rate of dead pests was calculated.
# Musca domestica = experiment: Test Example 2: filter paper/sucrose bait test against housefly imagoes; conditions: read-out: rate of dead pests
# Experimental: as §1, with “Ten female Musca domestica” for “Two male Blattella germanica”, “24 hours,” for “6 days,”, “Musca domestica” for “Blattella germanica”
# Culex pipiens pallens = experiment: Test Example 4: mosquito larvae test in treated water; conditions: 24 h, read-out: rate of dead pests
# Experimental: 0.7 ml of above test solution was added to 100 ml of ion exchanged water (active ingredient concentration: 3.5 ppm). Twenty last-instar larvae of Culex pipiens pallens were set free in the solution. After one day, the number of surviving and dead Culex pipiens pallens was examined and the rate of dead pests was calculated.
# [1] = 500 ppm test solution, 0.7 ml on filter paper with 30 mg sucrose, two male imagoes, after 6 days
# [2] = 500 ppm test solution, 0.7 ml on filter paper with 30 mg sucrose, ten female imagoes, after 24 hours
# [3] = active ingredient concentration 3.5 ppm in water, twenty last-instar larvae, after one day
Structure (SMILES),pest or weed control at 500 ppm (Blattella germanica; [1]),pest or weed control at 500 ppm (Musca domestica; [2]),pest or weed control at 3.5 ppm (Culex pipiens pallens; [3]),also measured
COC(=O)C(C)(CCCC(F)(F)F)S(=O)(=O)CCC(F)(F)F (stereo not drawn) [(44)],100%,≥ 70%,–,–
N#CC(CCC(F)(F)F)S(=O)(=O)CCC(F)(F)F (stereo not drawn) [(1)],100%,≥ 70%,≥ 90%,–
COC(=O)C(Cl)(CCCCC(F)(F)F)S(=O)(=O)CCC(F)(F)F (stereo not drawn) [(99)],–,≥ 70%,–,–
CC(C#N)(CCC(F)(F)C(F)(F)F)S(=O)(=O)CCC(F)(F)C(F)(F)C(F)(F)F (stereo not drawn) [(14)],–,–,–,pest or weed control at 500 ppm (Blattella germanica): 100%; pest or weed control at 3.5 ppm (Culex pipiens pallens): ≥ 90%; pest or weed control at 500 ppm (Musca domestica; 24 h): ≥ 70%
COC(=O)C(Cl)(CCC(F)(F)C(F)(F)C(F)(F)F)S(=O)(=O)CCC(F)(F)C(F)(F)F (stereo not drawn) [(96)],–,–,–,pest or weed control at 500 ppm (Blattella germanica): 100%; pest or weed control at 3.5 ppm (Culex pipiens pallens): ≥ 90%; pest or weed control at 500 ppm (Musca domestica; 24 h): ≥ 70%
NC(=O)C(Cl)(CCC(F)(F)C(F)(F)F)S(=O)(=O)CCC(F)(F)F (stereo not drawn) [(59)],100%,≥ 70%,≥ 90%,–
CC(C#N)(CCC(F)(F)C(F)(F)F)S(=O)(=O)CCC(F)(F)F (stereo not drawn) [(11)],100%,≥ 70%,≥ 90%,–
COC(=O)C(C)(CCC(F)(F)C(F)(F)C(F)(F)F)S(=O)(=O)CCC(F)(F)C(F)(F)F (stereo not drawn) [(52)],–,–,–,pest or weed control at 500 ppm (Blattella germanica): 100%; pest or weed control at 3.5 ppm (Culex pipiens pallens): ≥ 90%; pest or weed control at 500 ppm (Musca domestica; 24 h): ≥ 70%
CC(CCC(F)(F)C(F)(F)C(F)(F)F)(C(N)=O)S(=O)(=O)CCC(F)(F)C(F)(F)F (stereo not drawn) [(56)],–,–,–,pest or weed control at 500 ppm (Blattella germanica): 100%; pest or weed control at 3.5 ppm (Culex pipiens pallens): ≥ 90%; pest or weed control at 500 ppm (Musca domestica; 24 h): ≥ 70%
CC(C)(C)OC(=O)C(CCC(F)(F)C(F)(F)F)S(=O)(=O)CCC(F)(F)F (stereo not drawn) [(25)],–,≥ 70%,≥ 90%,–
CNC(=O)C(Cl)(CCC(F)(F)C(F)(F)F)S(=O)(=O)CCC(F)(F)F (stereo not drawn) [(75)],100%,≥ 70%,≥ 90%,–
NC(=O)C(F)(CCC(F)(F)C(F)(F)F)S(=O)(=O)CCC(F)(F)C(F)(F)F (stereo not drawn) [(73)],100%,≥ 70%,≥ 90%,–
N#CC(CCC(F)(F)C(F)(F)F)SCCC(F)(F)F (stereo not drawn) [(47)],–,–,–,rate of dead pests (Blattella germanica; [1]): 100%
COC(=O)C(F)(CCC(F)(F)C(F)(F)F)S(=O)(=O)CCC(F)(F)C(F)(F)F (stereo not drawn) [(72)],100%,≥ 70%,≥ 90%,–
N#CC(Cl)(CCC(F)(F)C(F)(F)F)S(=O)(=O)CCC(F)(F)F (stereo not drawn) [(21)],100%,≥ 70%,≥ 90%,–
CCNC(=O)C(C)(CCC(F)(F)C(F)(F)F)S(=O)(=O)CCC(F)(F)F (stereo not drawn) [(37)],100%,≥ 70%,≥ 90%,–
COC(=O)C(C)(CCC(F)(F)C(F)(F)F)S(=O)(=O)CCC(F)(F)C(F)(F)F (stereo not drawn) [(30)],100%,≥ 70%,≥ 90%,–
COC(=O)C(CCCC(F)(F)F)S(=O)(=O)CCC(F)(F)F (stereo not drawn) [(78)],100%,–,–,–
CC(CCC(F)(F)C(F)(F)F)(C(N)=O)S(=O)(=O)CCC(F)(F)F (stereo not drawn) [(34)],100%,≥ 70%,≥ 90%,–
COC(=O)C(C)(CCC(F)(F)C(F)(F)F)S(=O)(=O)CCC(F)(F)C(F)(F)C(F)(F)F (stereo not drawn) [(43)],–,–,–,pest or weed control at 500 ppm (Musca domestica; 24 h): ≥ 70%
CC(C)NC(=O)C(C)(CCC(F)(F)C(F)(F)F)S(=O)(=O)CCC(F)(F)F (stereo not drawn) [(41)],100%,≥ 70%,≥ 90%,–
CC(CCC(F)(F)C(F)(F)F)(C(N)=S)S(=O)(=O)CCC(F)(F)F (stereo not drawn) [(49)],100%,≥ 70%,≥ 90%,–

Structure (SMILES),pest or weed control at 500 ppm (Blattella germanica; [1]),pest or weed control at 500 ppm (Musca domestica; [2]),pest or weed control at 3.5 ppm (Culex pipiens pallens; [3]),also measured
COC(=O)C(F)(CCC(F)(F)C(F)(F)C(F)(F)F)S(=O)(=O)CCC(F)(F)F (stereo not drawn) [(90)],–,–,–,pest or weed control at 500 ppm (Blattella germanica): 100%; pest or weed control at 3.5 ppm (Culex pipiens pallens): ≥ 90%; pest or weed control at 500 ppm (Musca domestica; 24 h): ≥ 70%
CC(C#N)(CCC(F)(F)C(F)(F)F)S(=O)(=O)CCC(F)(F)C(F)(F)F (stereo not drawn) [(13)],100%,≥ 70%,≥ 90%,–
CCC(C#N)(CCC(F)(F)C(F)(F)F)S(=O)(=O)CCC(F)(F)F (stereo not drawn) [(15)],100%,≥ 70%,≥ 90%,–
CCCNC(=O)C(C)(CCC(F)(F)C(F)(F)F)S(=O)(=O)CCC(F)(F)F (stereo not drawn) [(40)],100%,≥ 70%,≥ 90%,–
CC(C)C(C#N)(CCC(F)(F)C(F)(F)F)S(=O)(=O)CCC(F)(F)F (stereo not drawn) [(17)],100%,≥ 70%,≥ 90%,–
CCCC(CCC(F)(F)C(F)(F)F)(C(=O)OC)S(=O)(=O)CCC(F)(F)F (stereo not drawn) [(28)],–,≥ 70%,–,–
NC(=O)C(F)(CCC(F)(F)C(F)(F)F)S(=O)(=O)CCC(F)(F)F (stereo not drawn) [(64)],100%,≥ 70%,–,–
COC(=O)C(CCC(F)(F)C(F)(F)C(F)(F)F)S(=O)(=O)CCC(F)(F)C(F)(F)F (stereo not drawn) [(51)],–,–,–,pest or weed control at 3.5 ppm (Culex pipiens pallens): ≥ 90%
N#CC(CCC(F)(F)C(F)(F)C(F)(F)C(F)(F)F)S(=O)(=O)CCC(F)(F)F (stereo not drawn) [(7)],–,–,–,pest or weed control at 500 ppm (Blattella germanica): 100%; pest or weed control at 3.5 ppm (Culex pipiens pallens): ≥ 90%
COC(=O)C(CCC(F)(F)C(F)(F)F)S(=O)(=O)CCC(F)(F)C(F)(F)F (stereo not drawn) [(24)],–,–,≥ 90%,–
COC(=O)C(F)(CCC(F)(F)C(F)(F)F)S(=O)(=O)CCC(F)(F)C(F)(F)C(F)(F)F (stereo not drawn) [(66)],–,–,–,pest or weed control at 500 ppm (Musca domestica; 24 h): ≥ 70%
COC(=O)C(Cl)(CCC(F)(F)C(F)(F)C(F)(F)F)S(=O)(=O)CCC(F)(F)F (stereo not drawn) [(83)],–,–,–,pest or weed control at 3.5 ppm (Culex pipiens pallens): ≥ 90%
COC(=O)C(CCC(F)(F)C(F)(F)C(F)(F)F)S(=O)(=O)CCC(F)(F)C(F)(F)F (stereo not drawn) [(95)],–,–,–,pest or weed control at 500 ppm (Musca domestica; 24 h): ≥ 70%
NC(=O)C(CCC(F)(F)C(F)(F)C(F)(F)F)S(=O)(=O)CCC(F)(F)C(F)(F)F (stereo not drawn) [(55)],–,–,–,pest or weed control at 500 ppm (Blattella germanica): 100%; pest or weed control at 500 ppm (Musca domestica; 24 h): ≥ 70%
COC(=O)C(CCC(F)(F)C(F)(F)C(F)(F)F)S(=O)(=O)CCC(F)(F)F (stereo not drawn) [(82)],–,–,–,pest or weed control at 3.5 ppm (Culex pipiens pallens): ≥ 90%; pest or weed control at 500 ppm (Musca domestica; 24 h): ≥ 70%
COC(=O)C(CCCC(F)(F)C(F)(F)F)S(=O)(=O)CCC(F)(F)F (stereo not drawn) [(101)],100%,≥ 70%,–,–
COC(=O)C(CCC(F)(F)C(F)(F)F)S(=O)(=O)CCC(F)(F)C(F)(F)C(F)(F)F (stereo not drawn) [(42)],–,–,–,pest or weed control at 3.5 ppm (Culex pipiens pallens): ≥ 90%
CCCCC(C#N)(CCC(F)(F)C(F)(F)F)S(=O)(=O)CCC(F)(F)F (stereo not drawn) [(18)],–,≥ 70%,≥ 90%,–
COC(=O)C(CCC(F)(F)F)S(=O)(=O)CCC(F)(F)F (stereo not drawn) [(76)],–,–,≥ 90%,–
CCCCCC(C#N)(CCC(F)(F)C(F)(F)F)S(=O)(=O)CCC(F)(F)F (stereo not drawn) [(19)],–,≥ 70%,≥ 90%,–
COC(=O)C(CCC(F)(F)F)S(=O)(=O)CCC(F)(F)C(F)(F)F (stereo not drawn) [(92)],–,–,≥ 90%,–
COC(=O)C(CCCC(F)(F)F)S(=O)(=O)CCC(F)(F)F (stereo not drawn) [(22)],–,≥ 70%,≥ 90%,–
